We go through 1 compound from patent US12486269B2 (Aconcagua Bio, Inc., priority 2024, dated 2025).

The target of test [1] is T1, human calcitonin receptor (CTR) (Homo sapiens, UniProt P30988).
T1 construct: expressed in transfected cells; host or cells: COS-7 (COS7-human CTR Clone #2)
T1 sequence (P30988 25-474): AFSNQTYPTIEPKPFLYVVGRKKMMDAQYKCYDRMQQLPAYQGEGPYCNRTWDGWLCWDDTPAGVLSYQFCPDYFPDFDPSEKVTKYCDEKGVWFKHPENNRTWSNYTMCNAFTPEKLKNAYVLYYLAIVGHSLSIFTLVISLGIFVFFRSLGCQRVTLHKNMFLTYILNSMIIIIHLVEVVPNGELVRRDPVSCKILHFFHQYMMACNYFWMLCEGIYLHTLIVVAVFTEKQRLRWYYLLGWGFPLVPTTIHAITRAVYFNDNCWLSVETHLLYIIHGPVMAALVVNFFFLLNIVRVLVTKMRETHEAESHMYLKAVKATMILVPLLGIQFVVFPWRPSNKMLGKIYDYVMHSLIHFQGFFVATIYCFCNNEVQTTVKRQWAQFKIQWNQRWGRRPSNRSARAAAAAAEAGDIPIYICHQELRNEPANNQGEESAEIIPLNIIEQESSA
Put plainly: Calcitonin Receptor (CTR) cAMP Assay. Particulars: COS7-human CTR Clone #2 stable cell line, cAMP dynamic 2 kit, 30 min; read-out: Calcitonin Receptor cAMP Stimulation Activity: EC50. It is filed as cell-based. A digest of the protocol: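 cAMP accumulation was measured by HTRF cAMP dynamic 2 read at 665/615 nm, 1 h at room temperature, with results scaled between vehicle and positive control. Before detection, COS7-human CTR stable cells were stimulated 30 min at 37 °C with compound (4-fold dilutions) in IBMX-containing HBSS/HEPES/casein buffer.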

Test [2] deals with T2, COS-7/AMY3 (human calcitonin receptor (CTR) and RAMP3) (Homo sapiens, UniProt O60896+P30988).
T2 construct: expressed in transfected cells; host or cells: COS-7
Kind of test: Amylin Receptor cAMP Assay I. It is filed as cell-based. The following applies: values marked *: Amylin Receptor cAMP Assay I; COS-7/AMY3 cells, cAMP Hi-range kit, 30 min; read-out: Amylin Receptor cAMP Stimulation Activity: EC50. From the text: Amylin Receptor cAMP Assay I
AMYRs are heterodimers of the class B calcitonin (CT) G-protein-coupled receptor (CTR) and receptor activity-modifying proteins (RAMPs). All three RAMPs can interact with the CTR and form AMY1, AMY2, AMY3 with RAMP1, RAMP2 and RAMP3, respectively. Like other class B1 GPCRs, the CT receptor family is canonically coupled to Gs-mediated cAMP production, and measurement of cAMP accumulation has been the primary assay used to determine peptide selectivity and potency.
To optimize functional activity directed toward Gαs coupling, COS-7 cells were stably transfected with human calcitonin receptor (CTR) and RAMP3, simultaneously. 100×concentration of compound working solutions were prepared (Agilent Technologies Bravo) with 4-fold serial dilution in 384-well Echo LDV plate (Labcyte, Cat #LP-0200). 100 nL/well 100×concentration of compound working solutions were moved to 384-well white low volume plate (Greiner, Cat #784075) using Labcyte ECHO550. […]
After incubation, the cAMP assay signal was generated using cAMP Hi-range Kit (Cisbio). […] The samples were then incubated at room temperature for 1 hour protected from light. the fluorescence was read at 665 and 615 nm with Reader PerkinElmer EnVision. % Activity=100%×(mean RLU of test sample−mean RLU of vehicle control)/(mean RLU of MAX control−mean RLU of vehicle control)) Amylin Receptor cAMP Assay II

SMILES strings stand for the structures.

One may read the EC50 as the midpoint of the concentration-response curve.

T2 sequence (O60896 24-148, one chain of several): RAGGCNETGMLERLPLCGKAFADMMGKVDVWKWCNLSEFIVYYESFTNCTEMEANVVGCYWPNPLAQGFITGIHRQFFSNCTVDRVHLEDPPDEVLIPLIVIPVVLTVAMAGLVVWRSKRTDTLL

On to `COc1cccc2c1CC[C@H]2NC(=O)c1ccc(-c2c3c(nc(CCc4ccc(F)cc4)c2-c2noc(=O)[nH]2)[C@@H]2CCCN2C3=O)s1` [Compound 108, 5-((S)-2-(4-fluorophenethyl)-5-oxo-3-(5-oxo-4,5-dihydro-1,2,4-oxadiazol-3-yl)-7,8,9,9a-tetrahydro-5H-pyrido[2,3-a]pyrrolizin-4-yl)-N—((R)-4-methoxy-2,3-dihydro-1H-inden-1-yl)thiophene-2-carboxamide], for which the results for the EC50 in test [1] and in test [2] were 2.42 nM and 121 nM, respectively.
